The record followed here is patent publication US20240199649A1 (Biosplice Therapeutics, Inc., priority 2022, published 2024).

pIC50: −log10 of the molar value.

The experiment deals with recombinant DYRK1A kinase (Homo sapiens (Human), UniProt Q13627). Kind of experiment: DYRK1A kinase assay (Ser/Thr 18 peptide Z-lyte FRET assay). The format is biochemical. The conditions noted are these: DYRK1A 0.25 μg/mL, ATP 15 μM, Ser/Thr peptide 18 4 μM; one hour at room temperature; 11-point dose-response, duplicate. The gist of the method:
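Z-lyte FRET assay on Ser/Thr 18 peptide, kinase activity read as coumarin/fluorescein emission ratio; compounds incubated 1 h at room temperature, then development reagent 1 h, in duplicate. Phosphorylated and unphosphorylated peptide served as controls; IC50 by non-linear regression of dose-response curves.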
In the case of `CNc1nc(N[C@@H]2CCN(C)CC2(F)F)nn2ccc(-c3ccc4nnn(CC(F)(F)F)c4n3)c12` [Compound 1034, (R)—N^2-(3,3-Difluoro-1-methylpiperidin-4-yl)-N^4-methyl-5-(3-(2,2,2-trifluoroethyl)-3H-[1,2,3]triazolo[4,5-b]pyridin-5-yl)pyrrolo[2,1-f][1,2,4]triazine-2,4-diamine], the pIC50 (usually the IC50 on a negative log10 scale, so that one unit is a factor of ten) is 8.72.

Consider `CNc1nc(NC2CCC(F)(F)CC2)nn2ccc(-c3ccc4nnn(CC(F)F)c4n3)c12` [Compound 1025, N^2-(4,4-Difluorocyclohexyl)-5-(3-(2,2-difluoroethyl)-3H-[1,2,3]triazolo[4,5-b]pyridin-5-yl)-N^4-methylpyrrolo[2,1-f][1,2,4]triazine-2,4-diamine], for which the pIC50 was 8.00.

`Nc1nc(N[C@H]2CC[C@@H](OC(F)F)CC2)nn2ccc(-c3ccc4nnn(CC(F)F)c4n3)c12` [Compound 1000, 5-(3-(2,2-Difluoroethyl)-3H-[1,2,3]triazolo[4,5-b]pyridin-5-yl)-N^2-(cis-4-(difluoromethoxy)cyclohexyl)pyrrolo[2,1-f][1,2,4]triazine-2,4-diamine]: the pIC50 is 8.29.

In the case of `C[C@]1(O)CC[C@H](Nc2nc(N)c3c(-c4ccn5nccc5c4)ccn3n2)CC1` [Compound 1, trans-4-((4-Amino-5-(pyrazolo[1,5-a]pyridin-5-yl)pyrrolo[2,1-f][1,2,4]triazin-2-yl)amino)-1-methylcyclohexan-1-ol], the pIC50 is 6.76.

In the case of `CNc1nc(N[C@@H]2CCN(C(C)=O)CC2(F)F)nn2ccc(-c3ccc4ncn(CC(F)(F)F)c4n3)c12` [Compound 1018, (R)-1-(3,3-Difluoro-4-((4-(methylamino)-5-(3-(2,2,2-trifluoroethyl)-3H-imidazo[4,5-b]pyridin-5-yl)pyrrolo[2,1-f][1,2,4]triazin-2-yl)amino)piperidin-1-yl)ethan-1-one], the pIC50 is 8.80.

With `CNc1nc(N[C@@H]2CCN(C)CC2(F)F)nn2ccc(-c3ccc4ncn(CC(F)F)c4n3)c12` [Compound 1011, (R)—N^2-(3,3-Difluoro-1-methylpiperidin-4-yl)-5-(3-(2,2-difluoroethyl)-3H-imidazo[4,5-b]pyridin-5-yl)-N^4-methylpyrrolo[2,1-f][1,2,4]triazine-2,4-diamine], the negative-log IC50 (pIC50) is 8.85.

For the compound `CC(=O)N1CC[C@@H](Nc2nc(N)c3c(-c4ccc5ncn(CC(F)F)c5n4)ccn3n2)C(F)(F)C1` [Compound 992, (R)-1-(4-((4-Amino-5-(3-(2,2-difluoroethyl)-3H-imidazo[4,5-b]pyridin-5-yl)pyrrolo[2,1-f][1,2,4]triazin-2-yl)amino)-3,3-difluoropiperidin-1-yl)ethan-1-one], the pIC50 was 9.15.

`CNc1nc(N[C@H]2CCN(C3COC3)C[C@H]2F)nn2ccc(-c3ccc4nnn(CC(F)F)c4n3)c12` [Compound 474, 5-(3-(2,2-Difluoroethyl)-3H-[1,2,3]triazolo[4,5-b]pyridin-5-yl)-N^2-((3R,4S)-3-fluoro-1-(oxetan-3-yl)piperidin-4-yl)-N^4-methylpyrrolo[2,1-f][1,2,4]triazine-2,4-diamine]: the pIC50 is 8.89.

For `CNc1nc(NC23CC4CC(CC(C4)C2)C3)nn2ccc(-c3ccc4nc(C)n(CC(F)F)c4n3)c12` [Compound 196, N^2-(Adamantan-1-yl)-5-(3-(2,2-difluoroethyl)-2-methyl-3H-imidazo[4,5-b]pyridin-5-yl)-N^4-methylpyrrolo[2,1-f][1,2,4]triazine-2,4-diamine], the pIC50 is 6.23.

For the compound `CNc1nc(N[C@H]2CC[C@](C)(O)CC2)nn2ccc(-c3ccc4nc(C)n(C(C)C)c4n3)c12` [Compound 132, trans-4-((5-(3-Isopropyl-2-methyl-3H-imidazo[4,5-b]pyridin-5-yl)-4-(methylamino)pyrrolo[2,1-f][1,2,4]triazin-2-yl)amino)-1-methylcyclohexan-1-ol], the pIC50 is 8.77.

Consider `CNc1nc(N[C@H]2CCN(C3CC3)CC2(F)F)nn2ccc(-c3ccc4nc(C)n(CC(F)F)c4n3)c12` [Compound 387, (S)—N^2-(1-Cyclopropyl-3,3-difluoropiperidin-4-yl)-5-(3-(2,2-difluoroethyl)-2-methyl-3H-imidazo[4,5-b]pyridin-5-yl)-N^4-methylpyrrolo[2,1-f][1,2,4]triazine-2,4-diamine], for which the pIC50 was 7.89.

With `CNc1nc(NC2CCN(CC(F)(F)F)CC2)nn2ccc(-c3ccc4nc(C)n(CC(F)F)c4n3)c12` [Compound 370, 5-(3-(2,2-Difluoroethyl)-2-methyl-3H-imidazo[4,5-b]pyridin-5-yl)-N^4-methyl-N^2-(1-(2,2,2-trifluoroethyl)piperidin-4-yl)pyrrolo[2,1-f][1,2,4]triazine-2,4-diamine], the pIC50 is 7.81.

As to `CNc1nc(N[C@H]2C[C@@H](OCCO)C2)nn2ccc(-c3ccc4nc(C)n(CC(F)F)c4n3)c12` [Compound 172, 2-(cis-3-((5-(3-(2,2-Difluoroethyl)-2-methyl-3H-imidazo[4,5-b]pyridin-5-yl)-4-(methylamino)pyrrolo[2,1-f][1,2,4]triazin-2-yl)amino)cyclobutoxy)ethan-1-ol], the pIC50 was 9.05.

On to `CN1CC[C@@H](Nc2nc(N)c3c(-c4ccc5ncn(CC(F)F)c5n4)ccn3n2)C(F)(F)C1` [Compound 991, (R)—N^2-(3,3-Difluoro-1-methylpiperidin-4-yl)-5-(3-(2,2-difluoroethyl)-3H-imidazo[4,5-b]pyridin-5-yl)pyrrolo[2,1-f][1,2,4]triazine-2,4-diamine], for which the pIC50 was 9.40.

For `CNc1nc(N[C@H]2CC[C@@H](NC(C)=O)CC2)nn2ccc(-c3ccc4nc(C)n(CC(F)F)c4n3)c12` [Compound 186, N-(cis-4-((5-(3-(2,2-difluoroethyl)-2-methyl-3H-imidazo[4,5-b]pyridin-5-yl)-4-(methylamino)pyrrolo[2,1-f][1,2,4]triazin-2-yl)amino)cyclohexyl)acetamide], the pIC50 was 8.82.

Turning to `Cc1nc2ccc(-c3ccn4nc(N[C@@H]5CCN(C6COC6)CC5(F)F)nc(N)c34)nc2n1CC(F)(F)F` [Compound 792, (R)—N^2-(3,3-Difluoro-1-(oxetan-3-yl)piperidin-4-yl)-5-(2-methyl-3-(2,2,2-trifluoroethyl)-3H-imidazo[4,5-b]pyridin-5-yl)pyrrolo[2,1-f][1,2,4]triazine-2,4-diamine], the pIC50 was 8.32.

Regarding `CNc1nc(N[C@H]2CN(C3COC3)CC2(F)F)nn2ccc(-c3ccc4nc(C)n(CC(F)F)c4n3)c12` [Compound 367, (S)—N^2-(4,4-difluoro-1-(oxetan-3-yl)pyrrolidin-3-yl)-5-(3-(2,2-difluoroethyl)-2-methyl-3H-imidazo[4,5-b]pyridin-5-yl)-N^4-methylpyrrolo[2,1-f][1,2,4]triazine-2,4-diamine], the pIC50 is 8.19.

On to `CNc1nc(N[C@H]2CC[C@](C)(O)CC2)nn2ccc(-c3ccc4nnn(CC(F)F)c4n3)c12` [Compound 465, (1r,4r)-4-((5-(3-(2,2-Difluoroethyl)-3H-[1,2,3]triazolo[4,5-b]pyridin-5-yl)-4-(methylamino)pyrrolo[2,1-f][1,2,4]triazin-2-yl)amino)-1-methylcyclohexan-1-ol], for which the pIC50 is 8.85.
